In BindingDB's records for doi:10.1016/j.bmcl.2006.01.011 (Purdue University, 2006):

The compounds below were run against T1, Dimer of Gag-Pol polyprotein [501-599,Q508K,L534I,L564I,C568A,C596A] (Human immunodeficiency virus 1, UniProt P03367, C568A/C596A/L534I/L564I/Q508K) (assay: Protease Inhibition Assay). Details: pH 6.4; 25 °C.
T1 construct: 501-599
Description: The Ki values were determined using fluorogenic substrate, 2-(aminobenzoyl)-Thr-Ile-Nle-Phe(p-NO2)-Gln-ArgNH2. A standard curve relating changes in fluorescent intensity to changes in concentration of product was used to convert fluorescent changes into molar velocities. The amount of cleavage was determined by HPLC.

| SMILES | Ki |
| --- | --- |
| CC(C)CN(C[C@@H](O)[C@H](Cc1ccccc1)NC(=O)O[C@H]1CO[C@H]2OCC[C@H]21)C1(C)C(=O)Nc2ccccc21 (stereo partly drawn) [(3R,3aS,6aR)-hexahydrofuro[2,3-b]furan-3-yl N-[(2S,3R)-3-hydroxy-4-[(3-methyl-2-oxo-2,3-dihydro-1H-indol-3-yl)(2-methylpropyl)amino]-1-phenylbutan-2-yl]carbamate] | 4.5 nM |
| O=C(N[C@@H](Cc1ccccc1)[C@H](O)CN1CCCCCC12C(=O)Nc1ccccc12)O[C@H]1CO[C@H]2OCC[C@H]21 (stereo partly drawn) [(3R,3aS,6aR)-hexahydrofuro[2,3-b]furan-3-yl N-[(2S,3R)-4-{1',2'-dihydrospiro[azepane-2,3'-indole]-2'-one}-3-hydroxy-1-phenylbutan-2-yl]carbamate] | > 1000 nM |
| CC(C)CN(C[C@@H](O)[C@H](Cc1ccccc1)NC(=O)O[C@H]1CO[C@H]2OCC[C@H]21)C1(C)C(=O)N(C)c2ccccc21 (stereo partly drawn) [(3R,3aS,6aR)-hexahydrofuro[2,3-b]furan-3-yl N-[(2S,3R)-4-[(1,3-dimethyl-2-oxo-2,3-dihydro-1H-indol-3-yl)(2-methylpropyl)amino]-3-hydroxy-1-phenylbutan-2-yl]carbamate] | 51 nM |
| O=C(N[C@@H](Cc1ccccc1)[C@H](O)CN1CC=CCCC12C(=O)Nc1ccccc12)O[C@H]1CO[C@H]2OCC[C@H]21 (stereo partly drawn) [(3R,3aS,6aR)-hexahydrofuro[2,3-b]furan-3-yl N-[(2S,3R)-4-{1',2',1,3,4,7-hexahydrospiro[azepine-2,3'-indole]-2'-one}-3-hydroxy-1-phenylbutan-2-yl]carbamate] | > 1000 nM |
| COc1ccc2c(c1)C(C)(N(CC(C)C)C[C@@H](O)[C@H](Cc1ccccc1)NC(=O)O[C@H]1CO[C@H]3OCC[C@H]31)C(=O)N2 (stereo partly drawn) [(3R,3aS,6aR)-hexahydrofuro[2,3-b]furan-3-yl N-[(2S,3R)-3-hydroxy-4-[(5-methoxy-3-methyl-2-oxo-2,3-dihydro-1H-indol-3-yl)(2-methylpropyl)amino]-1-phenylbutan-2-yl]carbamate] | 116 nM |
| C=CCC1(N(CC(C)C)C[C@@H](O)[C@H](Cc2ccccc2)NC(=O)O[C@H]2CO[C@H]3OCC[C@H]32)C(=O)Nc2ccccc21 (stereo partly drawn) [(3R,3aS,6aR)-hexahydrofuro[2,3-b]furan-3-yl N-[(2S,3R)-3-hydroxy-4-[(2-methylpropyl)[2-oxo-3-(prop-2-en-1-yl)-2,3-dihydro-1H-indol-3-yl]amino]-1-phenylbutan-2-yl]carbamate] | 4.5 nM |
| O=C(N[C@@H](Cc1ccccc1)[C@H](O)CN1CCCCC12C(=O)Nc1ccccc12)O[C@H]1CO[C@H]2OCC[C@H]21 (stereo partly drawn) [(3R,3aS,6aR)-hexahydrofuro[2,3-b]furan-3-yl N-[(2S,3R)-4-{1,2-dihydrospiro[indole-3,2'-piperidine]-2-one}-3-hydroxy-1-phenylbutan-2-yl]carbamate] | > 1000 nM |
